We go through two compounds from article PMC5522529, “Mechanisms of Paradoxical Activation of AMPK by the Kinase Inhibitors SU6656 and Sorafenib” (Cell Chemical Biology, 2017).

One experiment deals with human AMPK-α2 (WT) (Homo sapiens, UniProt P54646). As to the kind of experiment: AMPK activity of FLAG-tagged WT AMPK-α2 expressed in HEK293 cells. The settings on record: SU6656 100 μM, phenformin 10 mM, A23187 10 μM, 1 hr. The class given is cell-based. As for the experimental part:
(§1) Top: AMPK activity (mean ± SEM, n = 4); bottom: western blots showing phosphorylation of Thr172 on AMPK, and of ERK1/2, in cells treated with DMSO (control), SU6656 (100 μM), or PP2 (100 nM) (n = 2). (B) As (A), but in SYF cells. (C) HeLa cells were transfected with DNAs encoding GFP alone, or GFP fused to WT, Y261F/Y365F (FF), or Y36F/Y261F/Y365F (FFF) mutants of LKB1; cells were treated with increasing concentrations of SU6656 for 1 hr and AMPK activity determined (mean ± SEM, n = 4). See also Figure S1. (D) HEK293 cells were transfected with DNAs encoding FLAG-tagged AMPK-α2 with or without a Y436F mutation. Cells were incubated with DMSO (control), 100 μM SU6656, 10 mM phenformin, or 10 μM A23187 for 1 hr; AMPK complexes were immunoprecipitated using anti-FLAG antibody and assayed. The top panels show kinase activities (mean ± SD, n = 3); the bottom panels show blots from the same experiment (n = 2). In all panels, asterisks indicate significant differences from DMSO controls; in (D), there were no significant differences between the WT and Y463F mutant. **p < 0.01, ****p < 0.0001.

Experiment [1] deals with T1, endogenous full-length α1 complexes (Homo sapiens, UniProt Q13131).
T1 construct: endogenous in cells
As to the kind of experiment: Activity of endogenous full-length α1 complexes in HEK293 cells. It counts as cell-based. The settings on record: 1 hr. The text has this:
(§2) We next expressed an FLAG-tagged α1 kinase domain (α1-KD, residues 1–312) by transient transfection in HEK293 cells, treated the cells with various AMPK activators, and then assayed both the expressed α1-KD (precipitated using anti-FLAG) and endogenous full-length α1 complexes (precipitated using anti-α1 antibodies recognizing an epitope outside the α1-KD). […] This was also observed with A23187, as expected since this ionophore increases intracellular Ca^2+ and activates the alternate upstream kinase CaMKK2.
(§3) The α1-KD was precipitated using anti-FLAG and endogenous AMPK complexes using anti-α1 antibody, and activity determined. Results (mean ± SD, n = 2) are expressed relative to activities in DMSO controls. (B) Western blots (n = 2) using the indicated antibodies; samples from experiment in (A). (C) DNAs encoding FLAG-tagged AMPK-α1 (WT or AT mutant) were expressed by transient transfection in HEK293 cells, the cells treated with increasing concentrations of SU6656 for 1 hr, AMPK complexes precipitated with anti-FLAG, and activity measured. Results (mean ± SD, n = 3) are expressed relative to the DMSO control. […] Results (mean ± SD, n = 3) are expressed relative to the DMSO control. **p < 0.01, ***p < 0.001, ****p < 0.0001, ^†††p < 0.001; ns, not significant.

Another experiment addresses T2, AMPK-α1 AT mutant (Homo sapiens, UniProt Q13131, A167T).
T2 construct: we expressed FLAG-tagged full-length AMPK-α1 either as the WT or the AT mutant; expressed in transfected cells; host or cells: HEK293 (transient transfection)
Put plainly: AMPK activity of FLAG-tagged AMPK-α1 AT mutant expressed in HEK293 cells. It counts as cell-based. As to conditions: AT mutant FLAG-α1, 1 hr.
Excerpt: as §3
To confirm that it acted by binding at the catalytic site, we expressed FLAG-tagged full-length AMPK-α1 either as the WT or the AT mutant.

In experiment [2] the target is T3, human AMPK-α2 Y436F mutant (Homo sapiens, UniProt P54646, Y436F).
T3 construct: expressed in transfected cells; host or cells: HEK293 (transient transfection)
Put plainly: AMPK activity of FLAG-tagged Y436F AMPK-α2 expressed in HEK293 cells. The class given is cell-based. The settings on record: SU6656 100 μM, phenformin 10 mM, A23187 10 μM, 1 hr. As to the method: as §1

In another experiment the target is T4, AMPK-α1 (WT) (Homo sapiens, UniProt Q13131).
T4 construct: we expressed FLAG-tagged full-length AMPK-α1 either as the WT or the AT mutant; expressed in transfected cells; host or cells: HEK293
As to the kind of experiment: AMPK activity of FLAG-tagged AMPK-α1 (WT) expressed in HEK293 cells. It counts as cell-based. The settings on record: 1 hr; for AMPK activity: WT FLAG-α1 (comparison with AT mutant). An excerpt: (§4) (B) Western blotting of the same preparations as in (A). […] (D) Allosteric activation of WT and mutant α1β1γ1 complexes by MT 63-78, curve fitting as for (C). […] (E) Allosteric activation of WT and mutant α1β1γ1 complexes by AMP. Data were fitted to the equation for activation/inactivation by AMP ([Gowans et al., 2013]). […] (F) Activation of WT and AA mutant by various AMPK activators in HEK293 cells. […] FLAG-tagged complexes were isolated by immunoprecipitation and AMPK activity determined (mean ± SEM, n = 2).
(§5) We next expressed the FLAG-tagged WT or AA mutant of AMPK-α1 by transient transfection in HEK293 cells, treated with various agents, and measured AMPK activity in anti-FLAG immunoprecipitates. In Figure 4F, the results are expressed as absolute activities and are accompanied by blots showing Thr172 phosphorylation.
The α1-KD was precipitated using anti-FLAG and endogenous AMPK complexes using anti-α1 antibody, and activity determined. […] (B) Western blots (n = 2) using the indicated antibodies; samples from experiment in (A). (C) DNAs encoding FLAG-tagged AMPK-α1 (WT or AT mutant) were expressed by transient transfection in HEK293 cells, the cells treated with increasing concentrations of SU6656 for 1 hr, AMPK complexes precipitated with anti-FLAG, and activity measured.

Experiment [3] has as its target T5, α1 kinase domain (α1-KD, residues 1–312) (Homo sapiens, UniProt Q13131).
T5 construct: amplifying residues 1-312 with an N-terminal FLAG-tag; expressed in transfected cells; host or cells: HEK293 (transient transfection, pcDNA5 FRT)
Put plainly: Activity of FLAG-tagged α1 kinase domain expressed in HEK293 cells. It counts as cell-based. As to conditions: 1 hr.
Excerpt: as §2, §3
A plasmid encoding the AMPK-α2 kinase domain (α2-KD) was made by amplifying residues 1-310 with 5' BamH1 and 3' Xho1 sites, the resulting PCR product was cloned into pGEX6P2. Point mutations were generated using the Quikchange II site-directed mutagenesis kit (Stratagene) and confirmed by DNA sequencing.

Experiment [4] concerns the target T6, human α1β1γ1 complex with K40A mutation in α1 (Homo sapiens, UniProt P54619+Q13131+Q9Y478, K40A).
T6 construct: made in house; host or cells: Escherichia coli
Put plainly: Allosteric activation of α1β1γ1 complex, K40A mutant. The class given is biochemical.
Excerpt: (§6) We next tested whether SU6656 activates AMPK by binding at the ADaM site. […] We therefore expressed WT or single (K40A, K42A) or double (K40A/K42A, AA) α1 mutants in the context of the human α1β1γ1 complex (Figure 4A).
as §4
(§7) Endogenous AMPK was immunoprecipitated using the specified antibodies (for total AMPK, an equal mixture of anti-α1 and –α2 antibodies) and assayed at 200 μM ATP ([Hardie et al., 2000], [Towler et al., 2008]) using the AMARA peptide ([Dale et al., 1995]) as substrate, except for assays of allosteric activation by AMP (Figure 5A) where the SAMS peptide was used as substrate with 2 mM ATP ([Gowans et al., 2013]). The AMPK-related kinases SIK1, SIK2, SIK3, SNARK, MARK2/3 and MARK4 were immunoprecipitated and assayed as previously described ([Lizcano et al., 2004]) in lysates of Hela cells stably expressing LKB1 ([Fogarty et al., 2010]). LKB1 was assayed using the LKBtide peptide as substrate ([Sakamoto et al., 2004]).
(§8) Data were fitted to the specified equations by non-linear regression using GraphPad Prism 6 for Mac OSX.

The target of experiment [5] is T7, AMPK-γ2 R531G (RG) mutant (Homo sapiens, UniProt Q9UGJ0, R531G).
T7 construct: expressed in transfected cells
As to the kind of experiment: AMPK activity in HEK293 cells expressing R531G AMPK-γ2. It counts as cell-based. The settings on record: 1 hr. The text has this: (§9) The next possibility was that, like several other AMPK-activating drugs, SU6656 inhibits mitochondrial ATP synthesis, and thus activates AMPK indirectly by increasing cellular AMP/ADP. To test this, we used cell lines inducibly expressing either WT AMPK-γ2 or an AMP/ADP-resistant R531G (RG) mutant ([Hawley et al., 2010]). […] There were no effects of SU6656 on cellular oxygen uptake, unlike berberine. Subsequent addition of the uncoupler 2,4-dinitrophenol (DNP), which prevents the respiratory chain from being limited by ADP supply, increased oxygen uptake identically in control and SU6656-treated cells but had no effect following berberine, as expected for a complex I inhibitor (Figure S2).
(§10) (B) WT or RG cells were treated as in (A) and nucleotides extracted for analysis (mean ± SD, n = 3). […] (E) (See also Figure S2) Time courses of cellular oxygen uptake before and after addition of the indicated concentrations of sorafenib (SO, μM), SU6656 (100 μM) or phenformin (PHEN, 10 mM) (mean ± SEM, n = 4). (F) Effect of various concentrations of sorafenib or phenformin (10 mM) on activation (top, mean ± SEM, n = 3) or phosphorylation (bottom) of AMPK in cells expressing wild-type AMPK-γ2 (WT) or the R531G mutant AMPK-γ2 (RG). In all panels, asterisks show significant differences from DMSO controls (ns, not significant). In (B), daggers (†) show significant differences between results in WT and RG cells. *p < 0.05, **p < 0.01, ***p < 0.001, ****p < 0.0001, ^††††p < 0.0001.
(§11) HEK-293 cells stably expressing tetracycline-inducible FLAG-tagged human AMPK-γ2, or an R531G mutant, were generated by introducing the corresponding DNAs into Flp-In™ T-REx™ 293 cells ([Auciello et al., 2014]). Expression of the FLAG-tagged constructs was induced for 48 hr using tetracycline (1 μg.ml^-1) prior to addition of compounds under test. Transient transfections were carried out 36-48 hr prior to experiments, using Fugene 6 according to manufacturers’ instructions.

The target in experiment [6] is T8, human α1β1γ1 complex with K42A mutation in α1 (Homo sapiens, UniProt P54619+Q13131+Q9Y478, K42A).
T8 construct: made in house; host or cells: Escherichia coli
Put plainly: Allosteric activation of α1β1γ1 complex, K42A mutant. It counts as biochemical.
Excerpt: as §6, §4, §7, §8

For a further experiment, the target named is T9, AMPK-γ2 (WT) (Homo sapiens, UniProt Q9UGJ0).
T9 construct: expressed in transfected cells; host or cells: Flp-In T-REx 293 (HEK293), tetracycline-inducible
As to the kind of experiment: AMPK activity in HEK293 cells expressing WT AMPK-γ2. The class given is cell-based. The settings on record: 1 hr.
Excerpt: as §9, §10, §11

For experiment [7], the target named is T10, human α1β1γ1 complex with K40A/K42A (AA) mutations in α1 (Homo sapiens, UniProt P54619+Q13131+Q9Y478, K40A/K42A).
T10 construct: made in house; host or cells: Escherichia coli
Put plainly: Allosteric activation of α1β1γ1 complex, K40A/K42A (AA) mutant. The class given is biochemical.
Excerpt: as §6, §4, §7, §8

The next experiment addresses T11, human α1β1γ1 complex (Homo sapiens, UniProt P54619+Q13131+Q9Y478).
T11 construct: made in house; host or cells: Escherichia coli
As to the kind of experiment: Allosteric activation of bacterially expressed human α1β1γ1 complex, WT. It counts as biochemical.
Excerpt: as §6, §4, §7, §8

For a further experiment, the target named is T12, AMPK-α1 AA mutant (Homo sapiens, UniProt Q13131, K40A/K42A).
T12 construct: Plasmid encoding full-length human AMPK-α1; expressed in transfected cells; host or cells: HEK293
As to the kind of experiment: AMPK activity of FLAG-tagged AMPK-α1 K40A/K42A (AA) mutant expressed in HEK293 cells. The settings on record: AA mutant FLAG-α1; same concentrations, 1 hr. The class given is cell-based.
Excerpt: as §4, §5

T4 sequence (Q13131 whole entry): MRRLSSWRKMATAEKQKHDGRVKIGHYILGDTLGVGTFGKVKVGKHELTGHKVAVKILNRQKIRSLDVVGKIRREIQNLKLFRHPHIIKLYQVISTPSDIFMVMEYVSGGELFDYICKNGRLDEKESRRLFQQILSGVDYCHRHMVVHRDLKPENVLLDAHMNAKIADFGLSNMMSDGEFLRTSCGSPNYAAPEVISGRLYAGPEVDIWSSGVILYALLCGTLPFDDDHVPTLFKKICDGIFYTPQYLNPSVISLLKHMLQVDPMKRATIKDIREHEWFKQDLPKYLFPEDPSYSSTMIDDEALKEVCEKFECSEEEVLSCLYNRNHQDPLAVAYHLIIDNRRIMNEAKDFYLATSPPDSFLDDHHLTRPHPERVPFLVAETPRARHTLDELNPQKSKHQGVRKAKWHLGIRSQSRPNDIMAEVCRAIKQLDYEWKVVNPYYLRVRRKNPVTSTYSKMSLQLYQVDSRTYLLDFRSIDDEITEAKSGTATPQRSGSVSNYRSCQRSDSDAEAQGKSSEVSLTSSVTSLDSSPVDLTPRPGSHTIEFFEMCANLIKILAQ
T4 sequence (P54619 whole entry partner): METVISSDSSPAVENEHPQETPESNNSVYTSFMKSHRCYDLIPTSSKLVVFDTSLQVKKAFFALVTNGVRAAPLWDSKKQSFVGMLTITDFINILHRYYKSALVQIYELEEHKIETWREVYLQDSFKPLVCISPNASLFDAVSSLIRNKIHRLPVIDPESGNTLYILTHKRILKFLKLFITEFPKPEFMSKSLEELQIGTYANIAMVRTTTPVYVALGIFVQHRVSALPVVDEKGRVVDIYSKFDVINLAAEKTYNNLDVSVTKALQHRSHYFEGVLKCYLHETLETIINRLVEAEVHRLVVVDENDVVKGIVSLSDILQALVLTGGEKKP
T1 sequence (Q13131 whole entry): as the sequence (Q13131 whole entry) above
T1 sequence (P54619 whole entry partner): as the sequence (P54619 whole entry partner) above
T11 sequence (Q13131 whole entry): as the sequence (Q13131 whole entry) above
T11 sequence (Q9Y478 whole entry): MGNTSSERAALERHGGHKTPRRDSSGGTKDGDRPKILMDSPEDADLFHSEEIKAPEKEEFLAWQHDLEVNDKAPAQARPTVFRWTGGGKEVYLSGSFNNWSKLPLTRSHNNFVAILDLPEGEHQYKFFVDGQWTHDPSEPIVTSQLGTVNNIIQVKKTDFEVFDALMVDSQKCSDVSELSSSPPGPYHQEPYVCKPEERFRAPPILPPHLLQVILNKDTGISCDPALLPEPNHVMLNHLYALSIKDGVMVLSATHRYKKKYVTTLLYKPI
T11 sequence (P54619 whole entry): as the sequence (P54619 whole entry partner) above
T10 sequence (Q13131 whole entry K40A/K42A): as the sequence (Q13131 whole entry) above, with K40A, K42A counted along it
T10 sequence (Q9Y478 whole entry): as the sequence (Q9Y478 whole entry) above
T10 sequence (P54619 whole entry): as the sequence (P54619 whole entry partner) above
T6 sequence (Q13131 whole entry K40A): as the sequence (Q13131 whole entry) above, with K40A counted along it
T6 sequence (Q9Y478 whole entry): as the sequence (Q9Y478 whole entry) above
T6 sequence (P54619 whole entry): as the sequence (P54619 whole entry partner) above
T3 sequence (P54646 whole entry Y436F): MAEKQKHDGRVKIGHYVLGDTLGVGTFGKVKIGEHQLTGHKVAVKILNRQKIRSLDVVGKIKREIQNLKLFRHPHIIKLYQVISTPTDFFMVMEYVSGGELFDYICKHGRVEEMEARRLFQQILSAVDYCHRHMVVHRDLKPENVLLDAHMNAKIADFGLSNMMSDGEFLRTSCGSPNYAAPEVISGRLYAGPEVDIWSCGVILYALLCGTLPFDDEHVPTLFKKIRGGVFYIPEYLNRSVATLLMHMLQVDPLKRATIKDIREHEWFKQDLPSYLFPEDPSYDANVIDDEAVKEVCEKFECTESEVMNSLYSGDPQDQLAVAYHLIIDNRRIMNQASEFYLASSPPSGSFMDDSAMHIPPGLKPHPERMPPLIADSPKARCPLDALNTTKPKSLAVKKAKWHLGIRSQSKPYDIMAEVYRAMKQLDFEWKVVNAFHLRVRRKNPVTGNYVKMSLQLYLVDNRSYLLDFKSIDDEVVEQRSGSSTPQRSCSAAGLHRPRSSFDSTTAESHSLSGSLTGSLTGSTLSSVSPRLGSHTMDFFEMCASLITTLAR
T3 sequence (P54619 whole entry partner): as the sequence (P54619 whole entry partner) above
T9 sequence (Q9UGJ0 whole entry): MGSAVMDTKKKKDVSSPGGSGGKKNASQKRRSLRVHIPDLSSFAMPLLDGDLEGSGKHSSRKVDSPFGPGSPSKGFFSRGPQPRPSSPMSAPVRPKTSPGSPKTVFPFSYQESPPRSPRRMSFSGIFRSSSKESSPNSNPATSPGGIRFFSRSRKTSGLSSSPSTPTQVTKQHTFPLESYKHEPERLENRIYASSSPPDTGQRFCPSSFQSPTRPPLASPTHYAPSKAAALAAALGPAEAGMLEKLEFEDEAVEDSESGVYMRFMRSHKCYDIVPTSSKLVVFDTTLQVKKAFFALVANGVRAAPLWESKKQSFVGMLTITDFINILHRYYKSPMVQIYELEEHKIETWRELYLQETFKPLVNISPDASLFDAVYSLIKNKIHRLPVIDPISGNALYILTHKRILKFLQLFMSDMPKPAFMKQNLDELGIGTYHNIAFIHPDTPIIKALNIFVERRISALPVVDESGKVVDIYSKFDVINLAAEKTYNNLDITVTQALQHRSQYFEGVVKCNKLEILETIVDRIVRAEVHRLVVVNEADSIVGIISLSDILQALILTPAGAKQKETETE
T8 sequence (Q13131 whole entry K42A): as the sequence (Q13131 whole entry) above, with K42A counted along it
T8 sequence (Q9Y478 whole entry): as the sequence (Q9Y478 whole entry) above
T8 sequence (P54619 whole entry): as the sequence (P54619 whole entry partner) above
T5 sequence (Q13131 1-312): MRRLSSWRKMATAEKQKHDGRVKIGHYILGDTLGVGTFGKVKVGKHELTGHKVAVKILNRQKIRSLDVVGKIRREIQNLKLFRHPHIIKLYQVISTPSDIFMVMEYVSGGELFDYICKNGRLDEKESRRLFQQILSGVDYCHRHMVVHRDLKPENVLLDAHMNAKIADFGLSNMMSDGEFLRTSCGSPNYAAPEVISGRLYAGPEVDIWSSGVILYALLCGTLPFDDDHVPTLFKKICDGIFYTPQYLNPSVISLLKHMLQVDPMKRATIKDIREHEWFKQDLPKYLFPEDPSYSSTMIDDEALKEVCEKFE
T12 sequence (Q13131 whole entry K40A/K42A): as the sequence (Q13131 whole entry) above, with K40A, K42A counted along it
T12 sequence (P54619 whole entry partner): as the sequence (P54619 whole entry partner) above
Chain of human AMPK-α2 (WT) (P54646 whole entry, the tested form may be a part): as the sequence (P54646 whole entry Y436F) above, with F436Y counted along it
Chain of human AMPK-α2 (WT) (P54619 whole entry partner, the tested form may be a part): as the sequence (P54619 whole entry partner) above
T7 sequence (Q9UGJ0 whole entry R531G): as the sequence (Q9UGJ0 whole entry) above, with R531G counted along it
T2 sequence (Q13131 whole entry A167T): as the sequence (Q13131 whole entry) above, with A167T counted along it
T2 sequence (P54619 whole entry partner): as the sequence (P54619 whole entry partner) above

In the case of `CNc1ccc2oc(C[C@H]3O[C@@]4(CC[C@H]3C)O[C@H]([C@H](C)C(=O)c3ccc[nH]3)[C@H](C)C[C@H]4C)nc2c1C(=O)O` [A23187], on human AMPK-α2 (WT), the “AMPK activity in anti-FLAG immunoprecipitates” value is listed as “all activated AMPK”. The “kinase activity / Thr172 phosphorylation” value in experiment [1] and in experiment [3] was “also observed” in each case. Moreover, the AMPK activity result on AMPK-α1 AT mutant and at AMPK-α1 (WT) was “activated equally well” in each case. Besides, the “AMPK activation response with Y436F mutation” value in [2] is recorded as “unaffected by the Y436F mutation”.

`N#Cc1c(O)c2c(-c3ccc(-c4ccccc4O)cc3)csc2[nH]c1=O` [A769662]: the “Activation (maximal allosteric activation)” value in experiment [4] is given as 18 ± 0.7 fold; in experiment [6], 21 ± 0.6 fold; in experiment [7] it was 1.0 ± 0.03 fold; on human α1β1γ1 complex (not phosphorylated on Thr172, relative to basal activity) it was 38 ± 1 fold. In addition, the values for the EC50 (in [4]; in [7]; on human α1β1γ1 complex (read-out: EC50 (concentration causing half-maximal effect))) were 4000 ± 700 nM, 1 ± 2 nM and 1000 ± 100 nM, respectively. In addition, the results for the AMPK activity entry (in experiment [5]; on AMPK-γ2 (WT); on AMPK-α1 (WT)) were “activated AMPK in both”, “activated AMPK in both” and “did not cause a significant activation”, respectively. For the same compound, in experiment [1], the “kinase activity / Thr172 phosphorylation” value is on record as “not statistically significant”. Besides, the “AMPK activity and Thr172 phosphorylation” value at AMPK-α1 (WT) (WT FLAG-α1, A769662 300 μM, berberine 300 μM, phenformin 10 mM, troglitazone 100 μM, oligomycin 1 μM, SU6656 100 μM) was “activated AMPK and caused Thr172 phosphorylation”. Further, at AMPK-α1 AA mutant, the “effect of AA mutation on AMPK activation” value is on record as “completely prevented”.
